Columns and labels:
Human COX I = target: T1, Human COX I (Homo sapiens, UniProt P23219); assay: COX I activity in vitro (PGE2 ELISA, recombinant enzyme); assay type: biochemical; conditions: arachidonic acid 10 μM, pre-incubation 10-20 minutes; read-out: Human COX I ID50
T1 construct: A 2.0 kb fragment containing the coding region of either human or murine COX-I or human or murine COX-II; made in house; host or cells: SF9 insect cells (recombinant baculovirus, transfer vector pVL1393)
Procedure: (§1) A 2.0 kb fragment containing the coding region of either human or murine COX-I or human or murine COX-II was cloned into a BamH1 site of the baculovirus transfer vector pVL1393 (Invitrogen) to generate the baculovirus transfer vectors for COX-I and COX-II in a manner similar to the method of D. R. O'Reilly et al (Baculovirus Expression Vectors: A Laboratory Manual (1992)). Recombinant baculoviruses were isolated by transfecting 4 μg of baculovirus transfer vector DNA into SF9 insect cells ([…]) along with 200 ng of linearized baculovirus plasmid DNA by the calcium phosphate method. See M. D. Summers and G. E. Smith, A Manual of Methods for Baculovirus Vectors and Insect Cell Culture Procedures, Texas Agric. Exp. Station Bull. 1555 (1987). Recombinant viruses were purified by three rounds of plaque purification and high titer (10E7-10E8 pfu/ml), stocks of virus were prepared. For large scale production, SF9 insect cells were infected in 10 liter fermentors (0.5×10^6/ml) with the recombinant baculovirus stock such that the multiplicity of infection was 0.1. After 72 hours the cells were centrifuged and the cell pellet homogenized in Tris/Sucrose (50 mM: 25%, pH 8.0) containing 1% 3-[(3-cholamidopropyl)dimethylammonio]-1-propanesulfonate (CHAPS). The homogenate was centrifuged at 10,000×G for 30 minutes, and the resultant supernatant was stored at −80° C. before being assayed for COX activity.
(§2) COX activity was assayed as PGE2 formed/μg protein/time using an ELISA to detect the prostaglandin released. CHAPS-solubilized insect cell membranes containing the appropriate COX enzyme were incubated in a potassium phosphate buffer (50 mM, pH 8.0) containing epinephrine, phenol, and heme with the addition of arachidonic acid (10 μM). Compounds were pre-incubated with the enzyme for 10-20 minutes prior to the addition of arachidonic acid. Any reaction between the arachidonic acid and the enzyme was stopped after ten minutes at 37° C./room temperature by transferring 40 μl of reaction mix into 160 μl ELISA buffer and 25 μM indomethacin. The PGE2 formed was measured by standard ELISA technology (Cayman Chemical).

Human COX II = target: T2, Human COX II (Homo sapiens, UniProt P35354); assay: COX II activity in vitro (PGE2 ELISA, recombinant enzyme); assay type: biochemical; conditions: arachidonic acid 10 μM, pre-incubation 10-20 minutes; read-out: Human COX II ID50
T2 construct: A 2.0 kb fragment containing the coding region of either human or murine COX-I or human or murine COX-II; made in house; host or cells: SF9 insect cells (recombinant baculovirus, transfer vector pVL1393)
T2 sequence (P35354 18-604): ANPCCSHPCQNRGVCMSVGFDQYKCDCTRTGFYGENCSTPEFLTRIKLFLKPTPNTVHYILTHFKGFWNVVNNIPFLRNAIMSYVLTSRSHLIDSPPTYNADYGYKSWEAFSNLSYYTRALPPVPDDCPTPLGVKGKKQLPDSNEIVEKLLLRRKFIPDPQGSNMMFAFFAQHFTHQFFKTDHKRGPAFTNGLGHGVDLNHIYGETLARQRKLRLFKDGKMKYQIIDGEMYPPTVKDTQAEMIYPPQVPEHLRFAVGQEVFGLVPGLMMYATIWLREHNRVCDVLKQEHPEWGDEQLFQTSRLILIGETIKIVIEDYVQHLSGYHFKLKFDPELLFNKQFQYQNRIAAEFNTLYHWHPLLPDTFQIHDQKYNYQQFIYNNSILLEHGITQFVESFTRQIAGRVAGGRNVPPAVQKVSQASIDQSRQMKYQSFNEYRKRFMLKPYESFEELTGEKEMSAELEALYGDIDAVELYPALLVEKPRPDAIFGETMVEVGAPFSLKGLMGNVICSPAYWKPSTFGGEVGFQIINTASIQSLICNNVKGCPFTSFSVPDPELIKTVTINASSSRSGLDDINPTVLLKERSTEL
Procedure: The COX II inhibition activity of the compounds of this invention illustrated in the Examples was determined by the following methods.
as §1, §2

T1 sequence (P23219 24-599): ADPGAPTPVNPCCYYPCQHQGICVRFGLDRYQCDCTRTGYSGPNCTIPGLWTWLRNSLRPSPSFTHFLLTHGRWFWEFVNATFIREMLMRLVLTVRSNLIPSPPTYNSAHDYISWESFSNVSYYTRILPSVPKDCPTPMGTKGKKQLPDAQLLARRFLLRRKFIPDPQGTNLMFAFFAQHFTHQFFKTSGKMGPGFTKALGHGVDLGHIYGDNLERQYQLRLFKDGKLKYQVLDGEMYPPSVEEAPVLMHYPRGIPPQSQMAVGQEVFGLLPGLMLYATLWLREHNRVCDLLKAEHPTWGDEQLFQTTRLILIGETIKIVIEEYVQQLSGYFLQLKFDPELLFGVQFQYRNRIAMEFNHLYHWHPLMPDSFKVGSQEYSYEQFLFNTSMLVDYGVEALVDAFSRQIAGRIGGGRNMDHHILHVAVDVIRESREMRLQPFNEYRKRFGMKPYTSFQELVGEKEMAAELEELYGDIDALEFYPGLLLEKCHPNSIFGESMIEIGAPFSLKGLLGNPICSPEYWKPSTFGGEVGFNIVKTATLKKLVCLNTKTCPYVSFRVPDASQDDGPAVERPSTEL

IC50 (Human COX I)	IC50 (Human COX II)	melting point	Compound
> 100 µM	1.5 µM	179 to 182 °C	CS(=O)(=O)c1ccc(-c2[nH]c(SCc3ccc4ccccc4n3)nc2-c2ccc(F)cc2)cc1 [Example 50, 2-[[[4-(4-Fluorophenyl)-5-[4-(methylsulfonyl)phenyl]-1H-imidazol-2-yl]thio]methyl]quinoline]
> 100 µM	1.7 µM	211 to 213 °C	CS(=O)(=O)c1ccc(-c2[nH]c(S(=O)(=O)Cc3ccccc3)nc2-c2ccc(F)cc2)cc1 [Example 51, 4-(4-Fluorophenyl)-5-[4-(methylsulfonyl)phenyl]-2-[(phenylmethyl)sulfonyl]-1H-imidazole]
> 100 µM	0.3 µM	255 to 257 °C	CSc1ccc(-c2[nH]c(C(F)(F)F)nc2-c2ccc(S(C)(=O)=O)cc2)cc1Cl [Example 55, 5-[3-Chloro-4-(methylthio)phenyl]-4-[4-(methylsulfonyl)phenyl]-2-(trifluoromethyl)-1H-imidazole]
> 100 µM	3 µM	206 to 207 °C	CS(=O)(=O)c1ccc(-c2nc(C(F)(F)F)[nH]c2C2CCCCCC2)cc1 [Example 72, 5-[4-Cycloheptyl)-4-[4-(methylsulfonyl)phenyl]-2-(trifluoromethyl)-1H-imidazole]
> 100 µM	8.3 µM	169 °C	COCc1nc(-c2ccc(S(C)(=O)=O)cc2)c(-c2ccc(F)cc2)[nH]1 [Example 79, 5-(4-Fluorophenyl)-2-(methoxymethyl)-4-[4-(methylsulfonyl)-phenyl]-1H-imidazole]
> 100 µM	4.3 µM	215 to 217 °C	CC(=O)c1nc(-c2ccc(F)cc2)c(-c2ccc(S(C)(=O)=O)cc2)[nH]1 [Example 83, 1-[4-(4-Fluorophenyl)-5-[4-(methylsulfonyl)phenyl]-1H-imidazol-2-yl] ethanone]
> 100 µM	0.4 µM	227 to 231 °C	CS(=O)(=O)c1ccc(-c2[nH]c(C(=O)CCc3ccccc3)nc2-c2ccc(F)cc2)cc1 [Example 85]
> 100 µM	5.3 µM	291.7 °C	CS(=O)(=O)c1ccc(-c2[nH]c(C(=O)C(F)(F)F)nc2-c2ccc(F)cc2)cc1 [Example 89]
> 100 µM	3.9 µM	126 to 130 °C	CS(=O)(=O)c1ccc(-c2[nH]c(C(O)C(F)(F)F)nc2-c2ccc(F)cc2)cc1 (stereo not drawn) [Example 90, 4-(4-Fluorophenyl)-5-(4-(methylsulfonyl)phenyl]-a-(trifluoromethyl)-1H-imidazole-2-methanol]
> 100 µM	6.4 µM	212 °C	COC(C)c1nc(-c2ccc(F)cc2)c(-c2ccc(S(C)(=O)=O)cc2)[nH]1 (stereo not drawn) [Example 94, 4-(4-Fluorophenyl)-2-(1-methoxyethyl)-5-[4-(methyl-sulfonyl)phenyl]-1H-imidazole]
> 100 µM	2.4 µM	211 °C	CC(F)(F)c1nc(-c2ccc(F)cc2)c(-c2ccc(S(C)(=O)=O)cc2)[nH]1 [Example 95, 2-(1,1-Difluoroethyl)-4-(4-fluorophenyl)-5-[4-(methyl-sulfonyl)phenyl]-1H-imidazole]
